Patent publication US12486254B2, “Uracil derivatives for stimulating read-through of premature termination codons” (Southern Research Institute, priority 2022, dated 2025)
pEC50: −log10 of the molar value. Several values for one entry are separate records, joined by “and”; a condition that tells them apart may be missing. Equal values may be shown once.

Columns and labels:
W134X-CF#14 FRT = experiment: Read-through of a premature termination codon, W134X-CF#14 FRT data, with G418; assay type: cell-based; conditions: in presence of G418
Experimental: (§1) The compounds shown in Table 1 were evaluated for their ability to stimulate read-through of a premature termination codon, and their respective activities are shown in Tables 2 and 3 below.

G542X#10-HBE5x5 = experiment: Read-through of a premature termination codon, G542X#10-HBE5x5 (Table 3); assay type: cell-based; conditions: with G418
Experimental: as §1

| SMILES | pEC50 (W134X-CF#14 FRT) | pEC50 (G542X#10-HBE5x5) |
| --- | --- | --- |
| CCn1c(=O)c(C(=O)CN2CCCCC2C(=O)N(C)C)c(N)n(Cc2cccs2)c1=O (stereo not shown) [1.113] | 5.24 | ≤ 4.00 |
| CCn1c(=O)c(C(=O)CN2CCCCC2c2nc(C)no2)c(N)n(Cc2ccccc2)c1=O (stereo not shown) [1.86] | 4.25 | ≤ 4.00 |
| CCn1c(=O)c(C(=O)CN(CC(N)=O)C(C)C)c(N)n(Cc2ccc(F)cc2F)c1=O [1.149] | 5.49 | 4.38 |
| CCn1c(=O)c(C(=O)CNc2ccc(C(N)=O)cc2)c(N)n(Cc2ccc(F)cc2)c1=O [1.206] | 4.89 | 4.74 |
| CCn1c(=O)c(C(=O)CN2CCCC[C@@H]2c2ncc[nH]2)c(N)n(Cc2ccc(F)cc2)c1=O [1.196] | 5.81 | ≤ 4.00 |
| CCn1c(=O)c(C(=O)CN2CCCC[C@@H]2C(=O)NCC2CC2)c(N)n(Cc2ccccc2)c1=O [1.158] | 5.59 | ≤ 4.00 |
| CCOC(=O)C1CCCCN1CC(=O)c1c(N)n(Cc2ccccc2)c(=O)n(CC)c1=O (stereo not shown) [1.22] | 4.08 | ≤ 4.00 |
| CCn1c(=O)c(C(=O)CN(Cc2ncc[nH]2)C(C)C)c(N)n(Cc2ccccc2)c1=O [1.57] | 4.81 | ≤ 4.00 |
| CCn1c(=O)c(C(=O)CNCc2ccccc2)c(N)n(Cc2ccccc2)c1=O [1.14] | 4.91 | ≤ 4.00 |
| CCn1c(=O)c(C(=O)CN2CCCC2)c(N)n(Cc2ccc(F)cc2)c1=O [1.194] | 4.53 | ≤ 4.00 |
| CCn1c(=O)c(C(=O)CNC(C)C)c(N)n(Cc2ccc(F)cc2)c1=O [1.138, 6-amino-3-ethyl-1-[(4-fluorophenyl)methyl]-5-[2-(isopropylamino)acetyl]pyrimidine-2,4-dione] | 4.10 | ≤ 4.00 |
| CCn1c(=O)c(C(=O)CN2CCCC[C@@H]2c2nccn2C)c(N)n(Cc2ccc(F)cc2)c1=O [1.190] | 5.49 | ≤ 4.00 |
| CCN(CC(N)=O)CC(=O)c1c(N)n(Cc2ccccc2)c(=O)n(CC)c1=O [1.36] | 4.03 | ≤ 4.00 |
| CCn1c(=O)c(C(=O)CNc2ccccc2C(N)=O)c(N)n(Cc2ccc(F)cc2)c1=O [1.207] | 4.45 | 4.58 |
| CCn1c(=O)c(C(=O)CN2CCC(c3ccccc3)C2)c(N)n(Cc2ccccc2)c1=O (stereo not shown) [1.3] | 4.64 | ≤ 4.00 |
| CCn1c(=O)c(C(=O)CN2CCC[C@@H]2C(=O)OC)c(N)n(Cc2ccccc2)c1=O [1.24] | 4.64 | ≤ 4.00 |
| CCn1c(=O)c(C(=O)CN(CC(=O)N2CCCCC2)C(C)C)c(N)n(Cc2ccc(F)cc2)c1=O [1.176] | 5.79 | ≤ 4.00 |
| CCn1c(=O)c(C(=O)CNCC2CCCCO2)c(N)n(Cc2ccccc2)c1=O (stereo not shown) [1.8] | 3.78 | ≤ 4.00 |
| CCn1c(=O)c(C(=O)CNc2nc3ccccc3[nH]2)c(N)n(Cc2ccccc2)c1=O [1.29] | 4.93 | 4.21 |
| CCn1c(=O)c(C(=O)CN2CCCC[C@@H]2C(N)=O)c(N)n(Cc2ccc(F)cn2)c1=O [2.22] |  | ≤ 4.52 |
| CCn1c(=O)c(C(=O)CNCCC(N)=O)c(N)n(Cc2ccc(F)cc2)c1=O [1.201] |  | ≤ 4.00 |
| NC(=O)C1CCCCN1CC(=O)c1c(N)n(Cc2ccccc2)c(=O)n(Cc2ccccc2)c1=O (stereo not shown) [1.50] |  | 4.52 |
| CCn1c(=O)c(C(=O)CN(C(C)C)C(C)(C)C(N)=O)c(N)n(Cc2ccc(F)cc2)c1=O [2.19] |  | ≤ 4.52 |
| CCn1c(=O)c(C(=O)CN2CCN(c3ncccn3)CC2)c(N)n(Cc2ccccc2)c1=O [1.4] | 4.00 | ≤ 4.00 |
| CCn1c(=O)c(C(=O)CN2CCCC[C@@H]2C(=O)N(C)C)c(N)n(Cc2ccc(F)cc2)c1=O [1.126] |  | ≤ 4.00 |

| SMILES | pEC50 (W134X-CF#14 FRT) | pEC50 (G542X#10-HBE5x5) |
| --- | --- | --- |
| CCn1c(=O)c(C(=O)CN2CCN(C)C(=O)C2)c(N)n(Cc2ccc(F)cc2)c1=O [1.216] |  | ≤ 4.00 |
| CCn1c(=O)c(C(=O)CN(c2cccc(C(N)=O)c2)C(C)C)c(N)n(Cc2ccc(F)cc2)c1=O [1.219] |  | 4.31 |
| CCn1c(=O)c(C(=O)CN2CCCCC2C(N)=O)c(N)n(Cc2ccc(F)cc2)c1=O (stereo not shown) [1.103] |  | ≤ 4.00 |
| CCn1c(=O)c(C(=O)CN2CCCCC2C(=O)N(C)C)c(N)n(Cc2ccccc2)c1=O (stereo not shown) [1.67] |  | ≤ 4.00 |
| CCn1c(=O)c(C(=O)CN2CCCCC2=O)c(N)n(Cc2ccc(F)cc2)c1=O [1.165] | ≤ 4.00 | ≤ 4.00 |
| CCn1c(=O)c(C(=O)CN2CCCCC2C(=O)N2CCN(C)CC2)c(N)n(Cc2ccccc2)c1=O (stereo not shown) [1.96] | 4.23 | ≤ 4.00 |
| CCN(CC)C(=O)[C@H]1CCCCN1CC(=O)c1c(N)n(Cc2ccc(F)cc2)c(=O)n(CC)c1=O [2.4] |  | ≤ 4.52 |
| CCn1c(=O)c(C(=O)CN2CCCc3c(C(N)=O)cccc32)c(N)n(Cc2ccc(F)cc2)c1=O [1.223] |  | ≤ 4.00 |
| CCn1c(=O)c(C(=O)CN2CCCc3ccc(C(N)=O)cc32)c(N)n(Cc2ccc(F)cc2)c1=O [1.224] |  | ≤ 4.00 |
| CCn1c(=O)c(C(=O)CN(CC(=O)N(C)C)C(C)C)c(N)n(Cc2ccccc2)c1=O [1.40] |  | ≤ 4.00 |
| NC(=O)[C@H]1CCCCN1CC(=O)c1c(N)n(Cc2ccc(F)cc2)c(=O)n(Cc2ccc(F)cc2)c1=O [1.47, (2R)-1-[2-[4-amino-1,3-bis[(4-fluorophenyl)methyl]-2,6-dioxo-pyrimidin-5-yl]-2-oxo-ethyl]piperidine-2-carboxamide] | 5.50 | 4.30 |
| CCn1c(=O)c(C(=O)CN2CCCC2C(=O)OC)c(N)n(Cc2ccccc2)c1=O (stereo not shown) [1.12] | 4.34 | ≤ 4.00 |
| CCn1c(=O)c(C(=O)CN(CC(=O)N(C)C)C(C)C)c(N)n(Cc2ccc(F)cc2)c1=O [1.139] |  | ≤ 4.00 |
| CCn1c(=O)c(C(=O)CN(Cc2ccccc2)C2CCCCC2)c(N)n(Cc2ccccc2)c1=O [1.30] | 4.17 | 4.04 |
| CC(C)n1c(=O)c(C(=O)CN2CCCC[C@@H]2C(N)=O)c(N)n(Cc2ccc(F)cc2)c1=O [2.13] |  | ≤ 4.52 |
| CCn1c(=O)c(C(=O)CN2CCC[C@H]2C(=O)OC)c(N)n(Cc2ccccc2)c1=O [1.23] |  | ≤ 4.00 |
| CCn1c(=O)c(C(=O)CNC2CCOCC2)c(N)n(Cc2ccccc2)c1=O [1.10] |  | ≤ 4.00 |
| CCn1c(=O)c(C(=O)CN2CCCC[C@@H]2C(N)=O)c(N)n(Cc2ccc(OC(C)C)cc2)c1=O [2.14] |  | ≤ 4.52 |
| CCn1c(=O)c(C(=O)CN2CCCC[C@H]2C(N)=O)c(N)n(Cc2ccc(F)cc2)c1=O [2.1] |  | ≤ 4.52 |
| NC(=O)C1CCCCN1CC(=O)c1c(N)n(Cc2ccc(Cl)cc2)c(=O)n(Cc2ccc(Cl)cc2)c1=O (stereo not shown) [1.107] | 5.34 | 5.15 |
| CCn1c(=O)c(C(=O)CN2CCCC[C@@H]2C(=O)N2CCOCC2)c(N)n(Cc2ccc(F)cc2)c1=O [1.130] |  | ≤ 4.00 |
| CCn1c(=O)c(C(=O)CN2CCCN(C)C2=O)c(N)n(Cc2ccc(F)cc2)c1=O [1.215] |  | ≤ 4.00 |
| CCn1c(=O)c(C(=O)CN(CC(N)=O)C2CC2)c(N)n(Cc2ccccc2)c1=O [1.35] |  | ≤ 4.00 |
| CCn1c(=O)c(C(=O)CN2CCCC[C@@H]2C(=O)N2CCCC2)c(N)n(Cc2ccc(F)cc2)c1=O [2.5] |  | ≤ 4.52 |
| CC(C)N(CC(=O)c1c(N)n(Cc2ccc(F)cc2)c(=O)n(Cc2ccc(F)cc2)c1=O)CC(=O)N(C)C [1.74] |  | ≤ 4.00 |

| SMILES | pEC50 (W134X-CF#14 FRT) | pEC50 (G542X#10-HBE5x5) |
| --- | --- | --- |
| CCn1c(=O)c(C(=O)CN2CCCC[C@@H]2C(=O)N2CCC(F)(F)CC2)c(N)n(Cc2ccc(F)cc2)c1=O [1.168] |  | ≤ 4.00 |
| CCn1c(=O)c(C(=O)CN2CCOCC2C(N)=O)c(N)n(Cc2ccccc2)c1=O (stereo not shown) [1.53] | ≤ 4.00 | ≤ 4.00 |
| CCN(CC)C(=O)C1CCCN(CC(=O)c2c(N)n(Cc3ccccc3)c(=O)n(CC)c2=O)C1 (stereo not shown) [1.66] |  | ≤ 4.00 |
| CCn1c(=O)c(C(=O)CN2CCCC[C@@H]2C(N)=O)c(N)n(Cc2cccc(F)c2)c1=O [2.10] |  | ≤ 4.52 |
| NC(=O)C1CCCCN1CC(=O)c1c(N)n(-c2ccc(F)cc2)c(=O)n(Cc2ccccc2)c1=O (stereo not shown) [1.65] |  | ≤ 4.00 |
| CCn1c(=O)c(C(=O)CN(CC(N)=O)C(C)C)c(N)n(Cc2ccccc2)c1=O [1.1] |  | ≤ 4.00 |
| CCn1c(=O)c(C(=O)CN2CCCC[C@@H]2C(N)=O)c(N)n(Cc2ccc(C#N)c(F)c2)c1=O [2.20] |  | ≤ 4.52 |
| CCn1c(=O)c(C(=O)CN2CCCC[C@@H]2C(=O)N2CCCCC2)c(N)n(Cc2ccc(F)cc2)c1=O [1.129] |  | ≤ 4.00 |
| CCn1c(=O)c(C(=O)CN[C@@H](Cc2cnc[nH]2)C(=O)OC)c(N)n(Cc2ccccc2)c1=O [1.17] |  | ≤ 4.00 |
| CCn1c(=O)c(C(=O)CN2CCCC[C@@H]2C(N)=O)c(N)n(-c2cccc(F)c2)c1=O [2.16] |  | ≤ 4.52 |
| CCn1c(=O)c(C(=O)CN(C)C(C)C)c(N)n(Cc2ccccc2)c1=O [1.20] |  | ≤ 4.00 |
| CCn1c(=O)c(C(=O)CN2CCCC[C@@H]2C(N)=O)c(N)n(Cc2cccc(C)n2)c1=O [2.8] |  | ≤ 4.52 |
| NC(=O)[C@H]1CCCCN1CC(=O)c1c(N)n(Cc2ccc(F)cc2)c(=O)n(CC2CC2)c1=O [1.218] |  | ≤ 4.00 |
| CCn1c(=O)c(C(=O)CN2CCCC[C@@H]2C(N)=O)c(N)n(Cc2ccc(F)cc2F)c1=O [2.11] |  | ≤ 4.52 and 4.74 |
| CCn1c(=O)c(C(=O)CN2CCCCC2C(=O)N2CCOCC2)c(N)n(Cc2ccccc2)c1=O (stereo not shown) [1.87] |  | ≤ 4.00 |
| CCn1c(=O)c(C(=O)CN(C)C)c(N)n(Cc2cc(Cl)c(F)cc2F)c1=O [1.198] |  | ≤ 4.00 |
| CCOC(=O)C1CCN(CC(=O)c2c(N)n(Cc3ccccc3)c(=O)n(CC)c2=O)CC1 [1.6] |  | ≤ 4.00 |
| CCn1c(=O)c(C(=O)CN2CCCCC2c2nc3ccccc3n2C)c(N)n(Cc2ccccc2)c1=O (stereo not shown) [1.105] |  | ≤ 4.00 |
| CCn1c(=O)c(C(=O)CN2CCCC[C@@H]2C(N)=O)c(N)n(Cc2ccc(C(F)F)cc2)c1=O [2.12] |  | ≤ 4.52 |
| CCn1c(=O)c(C(=O)CN2CCCC[C@@H]2C(=O)NC)c(N)n(Cc2ccc(F)cc2)c1=O [2.6] |  | ≤ 4.52 |
| CCn1c(=O)c(C(=O)CNC2CCC(=O)NC2=O)c(N)n(Cc2ccc(F)cc2)c1=O (stereo not shown) [1.226] |  | ≤ 4.00 |
| CCn1c(=O)c(C(=O)CN2CCCC[C@@H]2C(N)=O)c(N)n([C@H](C)c2ccccc2)c1=O [1.125] |  | ≤ 4.00 |
| CCn1c(=O)c(C(=O)CNC(CN2CCCC2=O)c2ccccc2)c(N)n(Cc2ccc(F)cc2)c1=O (stereo not shown) [1.181] |  | ≤ 4.00 |
